What is called IC50 is the point on the concentration scale where inhibition reaches its midpoint.

human PDE4B1, sequence (Q07343 whole entry): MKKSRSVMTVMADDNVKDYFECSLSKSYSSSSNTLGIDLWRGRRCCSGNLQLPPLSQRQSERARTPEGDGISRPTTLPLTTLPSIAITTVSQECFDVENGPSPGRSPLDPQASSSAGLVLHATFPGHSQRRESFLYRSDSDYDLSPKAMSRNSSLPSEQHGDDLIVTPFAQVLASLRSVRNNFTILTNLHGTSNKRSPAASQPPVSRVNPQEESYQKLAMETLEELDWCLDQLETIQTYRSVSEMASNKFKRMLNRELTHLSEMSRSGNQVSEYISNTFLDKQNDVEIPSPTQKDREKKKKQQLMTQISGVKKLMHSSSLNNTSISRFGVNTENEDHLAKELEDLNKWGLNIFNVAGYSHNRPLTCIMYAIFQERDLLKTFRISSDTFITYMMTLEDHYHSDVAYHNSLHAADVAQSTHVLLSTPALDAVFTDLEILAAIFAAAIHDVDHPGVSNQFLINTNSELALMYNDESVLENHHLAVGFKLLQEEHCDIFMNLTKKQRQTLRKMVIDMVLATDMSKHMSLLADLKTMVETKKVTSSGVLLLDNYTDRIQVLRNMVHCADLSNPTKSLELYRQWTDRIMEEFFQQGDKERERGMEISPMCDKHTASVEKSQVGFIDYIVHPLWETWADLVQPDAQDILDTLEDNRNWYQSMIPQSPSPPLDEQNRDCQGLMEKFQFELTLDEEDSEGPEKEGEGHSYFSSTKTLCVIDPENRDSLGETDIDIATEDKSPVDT

The assay concerns the target human PDE4B1 (Homo sapiens (Human), UniProt Q07343). The assay can be described thus: cAMP HTRF assay to determine the activity of hPDE4B1. The assay is classed as biochemical. The conditions noted are these: IC50 inhibition of PDE4B; human recombinant PDE4B1, cAMP HTRF assay. As for the experimental part: Biological Testing cAMP HTRF® Assay to Determine the Activity of hPDE4B1
The inhibiting effect of the compounds on the enzyme activity of human PDE4B1 was measured by the quantification of 5′-adenosine monophosphate (5′-AMP), which is formed from 3′,5′-cyclic adenosine monophosphate (cAMP). Human recombinant enzyme, expressed in Sf9 cells, and the HTRF (homogeneous time-resolved fluorescence) detection method were used in the assay.
The test compound or water (control) was mixed with the human recombinant PDE4B1 enzyme (4.8 U) in a buffer consisting of 44.4 mM tris-HCl, 5.28 mM MgCl2, 2.64 mM DTT and 0.044% Tween 20 (pH 7.8). After adding the cAMP enzyme substrate (final concentration 40 nM), the mixture was incubated for 30 minutes at room temperature. Then a fluorescence acceptor (Dye2 marked with cAMP), a fluorescence donor (anti-cAMP antibody marked with a europium cryptate) and the non-specific phosphodiesterase inhibitor IBMX (3-isobutyl-1-methylxanthine; final concentration 1 mM) were added. After 60 min the fluorescence transfer, which correlates with the amount of remaining cAMP, was measured with a microplate reader (Rubystar, BMG) at λex=337 nm, λem=620 nm and λem=665 nm. The enzyme activity was calculated from the quotient formed from the measured signal at 665 nm and that at 620 nm. The result was expressed as the percentage inhibition of enzyme activity of the control (without PDE4 inhibitor). The enzyme was omitted for measurement of the basal control.
[N. Saldou et al., Comparison of recombinant human PDE4 isoforms: interaction with substrate and inhibitors, Cell. Signal. Vol. 10, No. 6, 427-440, 1998]. Several compounds according to the invention are tested in the above-described assay.
For orientation: TR-FRET usually uses a lanthanide donor and a delayed reading to cut background.
“[1-[5-(6-Methyl-pyridin-2-yl)-pyrimidin-2-yl]-spiro[1,2-dihydro-indole-3,1′-cyclopropane]-6-yl]-morpholin-4-yl-methanone [Compound 186]”: the IC50 is less than 0.1 µM.

In the case of `Cc1cccc(F)c1-c1cnc(N2CC3(CC3)c3ccc(C(=O)N4CCOCC4)cc32)nc1` [Compound 69, [1-[5-(2-Fluoro-6-methyl-phenyl)-pyrimidin-2-yl]-spiro[1,2-dihydro-indole-3,1′-cyclopropane]-6-yl]-morpholin-4-yl-methanone], the IC50 lay within 0.1 to 1 µM.

As to `CN(C)c1ccnc(-c2cnc(N3CC4(CC4)c4ccc(C(=O)N5CCOCC5)cc43)nc2)c1` [Compound 208, [1-[5-(4-Dimethylamino-pyridin-2-yl)-pyrimidin-2-yl]-spiro[1,2-dihydro-indole-3,1′-cyclopropane]-6-yl]-morpholin-4-yl-methanone], the IC50 is less than 0.1 µM.

In the case of “4-[1-(5-Phenyl-pyrimidin-2-yl)-spiro[1,2-dihydro-indole-3,1′-cyclopropane]-6-carbonyl]-piperazine-2,6-dione [Compound 202]”, the IC50 fell in the range of 0.1 to 1 µM.

For `O=C(c1ccc2c(c1)N(c1ncc(-c3ccccc3F)cn1)CC21CC1)N1CCC2(CNC2)C1` [Compound 74, (2,6-Diazaspiro[3.4]octan-6-yl)-[1-[5-(2-fluorophenyl)-pyrimidin-2-yl]-spiro[1,2-dihydro-indole-3,1′-cyclopropane]-6-yl]-methanone], the IC50 fell in the range of 1 to 10 µM.

`O=C(c1ccc2c(c1)N(c1ncc(-c3ccccc3F)cn1)CC21CC1)N1CCC(CO)CC1` [Compound 98, [1-[5-(2-Fluorophenyl)-pyrimidin-2-yl]-spiro[1,2-dihydro-indole-3,1′-cyclopropane]-6-yl]-[4-(hydroxymethyl)-piperidin-1-yl]-methanone]: the half-inhibitory concentration (IC50) lay in the range of 0.1 to 1 µM.

For the molecule `O=C(c1ccc2c(c1)N(c1ncc(-c3ccccc3F)cn1)CC21CC1)N1CCNCC1` [Compound 5, [1-[5-(2-Fluorophenyl)-pyrimidin-2-yl]-spiro[1,2-dihydro-indole-3,1′-cyclopropane]-6-yl]-piperazin-1-yl-methanone], the IC50 is less than 0.1 µM.

For the molecule `CN(CC1OCCO1)C(=O)c1ccc2c(c1)N(c1ncc(-c3ccccc3F)cn1)CC21CC1` [Compound 87, N-([1,3]Dioxolan-2-yl-methyl)-1-[5-(2-fluorophenyl)-pyrimidin-2-yl]-N-methyl-spiro[1,2-dihydro-indole-3,1′-cyclopropane]-6-carboxylic acid amide], the IC50 was 0.1 to 1 µM.

For the molecule `Cn1ccc(-c2cnc(N3CC4(CC4)c4ccc(C(=O)N5CCOCC5)cc43)nc2)c1` [Compound 136, [1-[5-(1-Methyl-1H-pyrrol-3-yl)-pyrimidin-2-yl]-spiro[1,2-dihydro-indole-3,1′-cyclopropane]-6-yl]-morpholin-4-yl-methanone], the IC50 is less than 0.1 µM.

In the case of `COc1ccc(C(N)=O)c(-c2cnc(N3CC4(CC4)c4ccc(C(=O)N5CCOCC5)cc43)nc2)c1` [Compound 113, 4-Methoxy-2-[2-[6-(morpholine-4-carbonyl)-spiro[1,2-dihydro-indole-3,1′-cyclopropane]-1-yl]-pyrimidin-5-yl]-benzamide], the IC50 was 0.1 to 1 µM.

Consider “1-[5-(3-Cyano-phenyl)-pyrimidin-2-yl]-N-(2-hydroxy-ethyl)-N-methyl-spiro[1,2-dihydro-indole-3,1′-cyclopropane]-6-carboxylic acid amide [Compound 194]”, for which the IC50 was less than 0.1 µM.

Take `Cn1cc(-c2cnc(N3CC4(CC4)c4ccc(C(=O)N5CC[C@@H](N)C5)cc43)nc2)cn1` [Compound 173, [(3R)-3-Amino-pyrrolidin-1-yl]-[1-[5-(1-methyl-1H-pyrazol-4-yl)-pyrimidin-2-yl]-spiro[1,2-dihydro-indole-3,1′-cyclopropane]-6-yl]-methanone]: the IC50 was less than 0.1 µM.

Consider “Morpholin-4-yl-[1-[5-[4-(trifluoromethyl)-pyridin-2-yl]-pyrimidin-2-yl]-spiro[1,2-dihydro-indole-3,1′-cyclopropane]-6-yl]-methanone [Compound 195]”, for which the IC50 is less than 0.1 µM.

As to `Cc1cc(-c2cnc(N3CC4(CC4)c4ccc(C(=O)N(C)CCO)cc43)nc2)ccn1` [Compound 214, N-(2-Hydroxy-ethyl)-N-methyl-1-[5-(2-methyl-pyridin-4-yl)-pyrimidin-2-yl]-spiro[1,2-dihydro-indole-3,1′-cyclopropane]-6-carboxylic acid amide], the IC50 was less than 0.1 µM.

Regarding `NC(=O)c1ccc(-c2cnc(N3CC4(CC4)c4ccc(C(=O)N5CCOCC5)cc43)nc2)c(F)c1` [Compound 26, 3-Fluoro-4-[2-[6-(morpholine-4-carbonyl]-spiro[1,2-dihydro-indole-3,1′-cyclopropane]-1-yl]-pyrimidin-5-yl]-benzamide], the IC50 was less than 0.1 µM.

Turning to “Morpholin-4-yl-[1-(5-pyridazin-3-yl-pyrimidin-2-yl)-spiro[1,2-di-hydro-indole-3,1′-cyclopropane]-6-yl]-methanone [Compound 191]”, the IC50 is less than 0.1 µM.

Consider `COC[C@@H]1CCCN1C(=O)c1ccc2c(c1)N(c1ncc(-c3ccccc3F)cn1)CC21CC1` [Compound 92, [1-[5-(2-Fluorophenyl)-pyrimidin-2-yl]-spiro[1,2-dihydro-indole-3,1′-cyclopropane]-6-yl]-[(2S)-2-(methoxymethyl)-pyrrolidin-1-yl]-methanone], for which the IC50 is 0.1 to 1 µM.

`CN(C)C(=O)c1ccc2c(c1)N(c1ncc(-c3cccnc3F)cn1)CC21CC1` [Compound 174, 1-[5-(2-Fluoro-pyridin-3-yl)-pyrimidin-2-yl]-N,N-dimethyl-spiro[1,2-dihydro-indole-3,1′-cyclopropane]-6-carboxylic acid amide]: the IC50 is less than 0.1 µM.

As to “[1-[5-(6-Methyl-pyridazin-3-yl)-pyrimidin-2-yl]-spiro[1,2-dihydro-indole-3,1′-cyclopropane]-6-yl]-morpholin-4-yl-methanone [Compound 196]”, the IC50 was less than 0.1 µM.

For `O=C(c1ccc2c(c1)N(c1ncc(-c3ccc(CO)s3)cn1)CC21CC1)N1CCOCC1` [Compound 149, [1-[5-[5-(Hydroxymethyl)-thiophen-2-yl]-pyrimidin-2-yl]-spiro[1,2-dihydro-indole-3,1′-cyclopropane]-6-yl]-morpholin-4-yl-methanone], the IC50 was less than 0.1 µM.

With `O=C(c1ccc2c(c1)N(c1ncc(-c3ccc(CO)o3)cn1)CC21CC1)N1CCOCC1` [Compound 142, [1-[5-[5-(Hydroxymethyl)-furan-2-yl]-pyrimidin-2-yl]-spiro[1,2-di-hydro-indole-3,1′-cyclopropane]-6-yl]-morpholin-4-yl-methanone], the 50% inhibitory concentration (IC50) was less than 0.1 µM.

As to `NC(=O)c1cccc(-c2cnc(N3CC4(CC4)c4ccc(C(=O)N5CCOCC5)cc43)nc2)c1` [Compound 54, 3-[2-[6-(Morpholine-4-carbonyl)-spiro[1,2-dihydro-indole-3,1′-cyclopropane]-1-yl]-pyrimidin-5-yl]-benzamide], the IC50 is less than 0.1 µM.

In the case of “1-[5-(3-Carbamoyl-phenyl)-pyrimidin-2-yl]-N-(2-hydroxy-ethyl)-N-methyl-spiro[1,2-dihydro-indole-3,1′-cyclopropane]-6-carboxylic acid amide [Compound 198]”, the IC50 is less than 0.1 µM.

`O=C(c1ccc2c(c1)N(c1ncc(-c3ccccc3F)cn1)CC21CC1)N1CCCCC1` [Compound 84, [1-[5-(2-Fluorophenyl)-pyrimidin-2-yl]-spiro[1,2-dihydro-indole-3,1′-cyclopropane]-6-yl]-piperidin-1-yl-methanone]: the IC50 is less than 0.1 µM.

For the molecule `N[C@H]1CCN(C(=O)c2ccc3c(c2)N(c2ncc(-c4ccccc4F)cn2)CC32CC2)C1` [Compound 115, [(3S)-3-Amino-pyrrolidin-1-yl]-[1-[5-(2-fluorophenyl)-pyrimidin-2-yl]-spiro[1,2-dihydro-indole-3,1′-cyclopropane]-6-yl]-methanone], the IC50 is less than 0.1 µM.

As for `O=C(NCC1CCOCC1)c1ccc2c(c1)N(c1ncc(-c3ccccc3F)cn1)CC21CC1` [Compound 82, 1-[5-(2-Fluorophenyl)-pyrimidin-2-yl]-N-(tetrahydro-pyran-4-yl-methyl)-spiro[1,2-dihydro-indole-3,1′-cyclopropane]-6-carboxylic acid amide], the IC50 fell in the range of 1 to 10 µM.

Regarding `O=C(c1ccc2c(c1)N(c1ncc(-c3ccccc3C3CC3)cn1)CC21CC1)N1CCOCC1` [Compound 62, [1-[5-(2-Cyclopropyl-phenyl)-pyrimidin-2-yl]-spiro[1,2-dihydro-indole-3,1′-cyclopropane]-6-yl]-morpholin-4-yl-methanone], the IC50 fell in the range of 1 to 10 µM.

Regarding `Cn1ccc(-c2cnc(N3CC4(CC4)c4ccc(C(=O)N5CCOCC5)cc43)nc2)n1` [Compound 137, [1-[5-(1-Methyl-1H-pyrazol-3-yl)-pyrimidin-2-yl]-spiro[1,2-dihydro-indole-3,1′-cyclopropane]-6-yl]-morpholin-4-yl-methanone], the IC50 is less than 0.1 µM.

The record behind these values is patent US10189854B2, “Substituted pyrimidine compounds” (Grünenthal GmbH, priority 2014, dated 2019).
